# From patent publication US9802899B2, “Heterocyclic compounds as pesticides” (BAYER CROPSCIENCE AG, priority 2012, dated 2017)
# Assay: Determination of the log P values by HPLC (formic acid method)
# Assay type: physicochemical
# Conditions: reversed-phase HPLC column (C 18), reversed-phase column (C 18), acidic range (pH 3.4), 55° C.
# Description: 1) Description of Method for Determination of the Log P Values (Formic Acid Method)
# Eluents for determination in the acidic range (pH 3.4):
# Eluent A: acetonitrile+1 ml of formic acid/liter. Eluent B: water+0.9 ml of formic acid/liter.
# The lambda max values were determined in the maxima of the chromatographic signals using the UV spectra from 200 nm to 400 nm.
row,Structure (SMILES),chromatographic logP
1,"O=C(Nc1ccn(-c2nccc(-c3ccc(F)cc3)c2F)n1)c1ccccc1C(F)(F)F [Compound I-1-640, N-{1-[3-Fluoro-4-(4-fluorophenyl)pyridin-2-yl]-1H-pyrazol-3-yl}-2-(trifluoromethyl)benzamide]",3.4
2,"O=C(Nc1ccn(-c2cccnc2Cl)n1)c1ccccc1I [Compound I-1-139, N-[1-(2-Chloropyridin-3-yl)-1H-pyrazol-3-yl]-2-iodobenzamide]",2.27

# Same assay, conditions: reversed-phase column (C 18), acidic range (pH 3.4), 55° C.
row,Structure (SMILES),log P
1,O=C(Nc1nn(-c2c(F)cccc2F)cc1I)c1ccccc1C(F)(F)F [Compound I-1-257],2.86
2,O=C(Nc1ccn(-c2ncccc2F)n1)c1c(F)cccc1F [Compound I-1-132],1.99
3,CCn1nc(C)c(Br)c1C(=O)Nc1ccn(-c2c(F)cccc2F)n1 [Compound I-1-300],3.15
4,O=C(Nc1ccn(-c2ncc(Cl)cc2F)n1)c1ccccc1Cl [Compound I-1-590],2.74
5,O=C(Nc1nn(-c2ccccc2Cl)c2ccccc12)c1cccnc1C(F)(F)F [Compound I-5-9],3.11
6,O=C(Nc1cnn(-c2c(F)cccc2F)n1)c1ccncc1C(F)(F)F [Compound I-2-81],2.36
7,O=C(Nc1ccn(-c2ncc(F)cc2F)n1)c1ncncc1Cl [Compound I-1-545],1.92
8,O=C(Nc1ccn(-c2ncccc2Cl)n1)c1ccsc1I [Compound I-1-566],2.46
9,O=C(Nc1ccn(-c2c(Cl)cccc2Cl)n1)c1cccnc1C(F)(F)F [Compound I-1-124],2.57
10,O=C(Nc1ccn(-c2ncccc2Br)n1)c1ccccc1C(F)(F)F [Compound I-1-549],2.42
11,O=C(Nc1ccn(-c2c(F)cccc2F)c1)c1ccccc1I [Compound I-3-3],2.96
12,N#Cc1c(F)cccc1-n1ccc(NC(=O)c2cccnc2C(F)(F)F)n1 [Compound I-1-618],2.26
13,O=C(Nc1ccn(-c2ncc(F)cc2F)n1)c1ccnn1C(F)F [Compound I-1-443],2.16
14,CCc1cc(NC(=O)c2ccccc2C(F)(F)F)nn1-c1ccc(F)cc1F [Compound I-1-201],4.15
15,O=C(Nc1ccn(-c2c(F)cccc2F)n1)c1cc(F)ccc1C(F)(F)F [Compound I-1-331],2.80
16,CCc1nnccc1C(=O)Nc1ccn(-c2c(F)cccc2F)n1 [Compound I-1-98],1.73
17,O=C(Nc1ccn(-c2ncccc2F)n1)c1occc1I [Compound I-1-582],2.16
18,O=C(Nc1ccn(-c2cccc(F)c2F)n1)c1ncccc1C(F)(F)F [Compound I-1-68],3.29
19,O=C(c1ccccc1C(F)(F)F)N(C(=O)c1ccccc1C(F)(F)F)c1nn(-c2ccccc2Br)nc1Cl [Compound I-2-27],4.87

row,Structure (SMILES),log P
1,O=C(Nc1ccn(-c2ncc(F)cc2F)n1)C1=C(C(F)(F)F)OCCS1 [Compound I-1-155],2.35
2,Cc1cc(NC(=O)c2cnccc2C(F)(F)F)nn1-c1ccccc1Cl [Compound I-1-380],2.09
3,O=C(Nc1ccn(-c2ncccc2C(F)(F)F)n1)c1ccccc1Br [Compound I-1-424],2.61
4,Cn1nc(C(C)(C)C)c([N+](=O)[O-])c1C(=O)Nc1ccn(-c2ncc(F)cc2F)n1 [Compound I-1-512],3.11
5,O=C(Nc1nn(-c2ncc(F)cc2F)cc1[N+](=O)[O-])c1ccccc1C(F)(F)F [Compound I-1-475],2.63
6,O=C(Nc1cnn(-c2ncccc2Cl)n1)c1cccnc1C(F)(F)F [Compound I-2-55],1.95
7,N#Cc1ccccc1C(=O)Nc1ccn(-c2c(F)cccc2F)n1 [Compound I-1-272],2.48
8,O=C(Nc1ccn(-c2ncccc2Br)n1)c1c(F)cccc1F [Compound I-1-551],2.13
9,CS(=O)(=O)c1ccccc1C(=O)Nc1ccn(-c2ncc(F)cc2F)n1 [Compound I-1-462],1.69
10,O=C(Nc1nn(-c2ncccc2F)c2ccccc12)c1ccccc1Br [Compound I-5-4],2.67
11,O=C(Nc1ccn(-c2ncc(Cl)cc2Cl)n1)c1ccc(F)cc1C(F)(F)F [Compound I-1-436],2.61
12,N#Cc1cc(F)ccc1-n1ccc(NC(=O)c2ccccc2Cl)n1 [Compound I-1-630],2.52
13,O=C(Nc1cnn(-c2ncccc2Cl)n1)c1ccccc1I [Compound I-2-14],2.36
14,COc1ccccc1-n1ccc(NC(=O)c2c(F)cccc2F)n1 [Compound I-1-408],2.57
15,Cn1cncc1C(=O)Nc1ccn(-c2ncc(F)cc2F)n1 [Compound I-1-646],0.70
16,Cc1oc(C)c(C(=O)Nc2ccn(-c3ncc(F)cc3F)n2)c1Br [Compound I-1-523],3.18
17,O=C(Nc1ccn(-c2c(F)cccc2F)n1)c1ccsc1I [Compound I-1-105],2.76
18,O=C(Nc1ccn(-c2ccccc2Cl)n1)c1cccnc1OC(F)(F)F [Compound I-1-344],3.10
19,Cn1nc(C(F)(F)C(F)(F)F)c(C#N)c1C(=O)Nc1ccn(-c2c(F)cccc2F)n1 [Compound I-1-317],3.37

row,Structure (SMILES),log P
1,O=C(Nc1cnn(-c2ncc(F)cc2F)n1)c1cccnc1C(F)(F)F [Compound I-2-67],2.00
2,Cc1nn(C(F)F)c(C(=O)Nc2ccn(-c3c(F)cccc3F)n2)c1F [Compound I-1-231],2.89
3,O=C(Nc1cnn(-c2ncc(C(F)(F)F)cc2Cl)n1)c1ccccc1I [Compound I-2-75],3.28
4,Cc1nn(-c2ccccc2Cl)nc1NC(=O)c1ccccc1I [Compound I-2-24],2.92
5,CC(C)c1nn(C)c(C(=O)Nc2ccn(-c3c(F)cccc3F)n2)c1[N+](=O)[O-] [Compound I-1-290],2.93
6,Cc1snnc1C(=O)Nc1ccn(-c2ncc(F)cc2F)n1 [Compound I-1-546],2.15
7,N#Cc1ccccc1-n1ccc(NC(=O)c2ccccc2C(F)(F)F)n1 [Compound I-1-9],2.55
8,CCC(C)n1ncc(Cl)c1C(=O)Nc1ccn(-c2ncc(F)cc2F)n1 (centres unmarked) [Compound I-1-455],3.37
9,O=C(Nc1ccn(-c2c(Cl)cccc2Cl)n1)c1cccnc1OC(F)(F)F [Compound I-1-226],3.21
10,O=C(Nc1ccn(-c2cncc(F)n2)n1)c1ccccc1I [Compound I-1-405],3.28
11,Cc1ccccc1C(=O)Nc1ccn(-c2ccccc2Cl)n1 [Compound I-1-11],2.86
12,N#Cc1cc(F)ccc1-n1ccc(NC(=O)c2ccsc2I)n1 [Compound I-1-633],2.73
13,Cc1ccsc1C(=O)Nc1ccn(-c2ccccc2Br)n1 [Compound I-1-60],3.16
14,O=C(Nc1ccn(-c2ncc(F)cn2)n1)c1ccccc1I [Compound I-1-605],2.05
15,Cc1cn(-c2ccccc2Cl)nc1NC(=O)c1ccccc1Br [Compound I-1-354],2.86
16,Cc1cnoc1C(=O)Nc1ccn(-c2c(F)cccc2F)n1 [Compound I-1-327],2.24
17,Cn1nc(C(F)(F)C(F)(F)F)c(C(F)(F)F)c1C(=O)Nc1ccn(-c2ncc(F)cc2F)n1 [Compound I-1-450],3.65
18,CCn1ncc(I)c1C(=O)Nc1ccn(-c2c(F)cccc2F)n1 [Compound I-1-235],2.76
19,O=C(Nc1ccn(-c2c(F)cccc2F)n1)c1sccc1C(F)F [Compound I-1-282],2.80
